# Measured values reported in patent US20240043427A1 (Gilead Sciences, Inc., priority 2020, published 2024).
# Assays:
# CD73 [1] = target: T1, CD73 (Homo sapiens (Human), UniProt P21589); test: MDA-MB-231 Cell Based CD73 Activity Assay (DMEM); conditions: MDA-MB-231-GFP cells, DMEM medium with 10% human plasma, 200 uM AMP
# CD73 [2] = target: T1, CD73; assay type: biochemical; conditions: 1 mM NaH2PO4 in enzyme buffer, CD73 0.3 nM, AMP 15 uM
# T1 sequence (P21589 27-574): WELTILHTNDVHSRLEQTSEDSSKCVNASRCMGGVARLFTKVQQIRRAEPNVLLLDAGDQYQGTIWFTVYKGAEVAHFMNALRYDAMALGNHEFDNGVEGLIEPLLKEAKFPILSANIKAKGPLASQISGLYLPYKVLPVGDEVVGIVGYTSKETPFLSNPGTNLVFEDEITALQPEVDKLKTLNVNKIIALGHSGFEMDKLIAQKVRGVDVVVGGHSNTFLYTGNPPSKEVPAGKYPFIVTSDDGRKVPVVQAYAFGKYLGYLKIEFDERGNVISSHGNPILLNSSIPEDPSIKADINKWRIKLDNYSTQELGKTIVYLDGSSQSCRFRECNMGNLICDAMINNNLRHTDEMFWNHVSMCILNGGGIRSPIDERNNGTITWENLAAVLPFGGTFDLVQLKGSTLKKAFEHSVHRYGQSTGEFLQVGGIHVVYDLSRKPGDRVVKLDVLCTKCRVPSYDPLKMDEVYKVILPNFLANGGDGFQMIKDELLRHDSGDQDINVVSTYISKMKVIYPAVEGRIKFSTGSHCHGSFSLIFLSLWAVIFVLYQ
compound,measurement,setting,value
"O=c1[nH]cc(-c2cc(N3CCC(c4ccc(C(F)(F)F)cc4)C3)c3ncc(F)n3n2)c(=O)[nH]1 (centres unmarked) [Example 262, 5-(3-fluoro-8-(3-(4-(trifluoromethyl)phenyl)pyrrolidin-1-yl)imidazo[1,2-b]pyridazin-6-yl)pyrimidine-2,4(1H,3H)-dione]",EC50,CD73 [1],565 nM
same,IC50,CD73 [2],73.4 nM
"COC(=O)c1cccc(C2CN(c3cc(-c4c[nH]c(=O)[nH]c4=O)nn4ccnc34)C2)c1 [Example 263, Methyl 3-(1-(6-(2,4-dioxo-1,2,3,4-tetrahydropyrimidin-5-yl)imidazo[1,2-b]pyridazin-8-yl)azetidin-3-yl)benzoate]",EC50,CD73 [1],31.4 nM
same,IC50,CD73 [2],10.7 nM
"COC(=O)c1cccc(C2CCN(c3cc(-c4c[nH]c(=O)[nH]c4=O)nn4ccnc34)C2)c1 (centres unmarked) [Example 264, Methyl 3-(1-(6-(2,4-dioxo-1,2,3,4-tetrahydropyrimidin-5-yl)imidazo[1,2-b]pyridazin-8-yl)pyrrolidin-3-yl)benzoate]",EC50,CD73 [1],88 nM
same,IC50,CD73 [2],5.59 nM
"COC(=O)c1ccc(C2CCN(c3cc(-c4c[nH]c(=O)[nH]c4=O)nn4ccnc34)C2)cc1 (centres unmarked) [Example 265, Methyl 4-(1-(6-(2,4-dioxo-1,2,3,4-tetrahydropyrimidin-5-yl)imidazo[1,2-b]pyridazin-8-yl)pyrrolidin-3-yl)benzoate]",EC50,CD73 [1],77.9 nM
same,IC50,CD73 [2],3.22 nM
"O=c1[nH]cc(-c2cc(N3CC(F)(F)C4(CC4)C3)c3nncn3n2)c(=O)[nH]1 [Example 266, 5-(8-(7,7-difluoro-5-azaspiro[2.4]heptan-5-yl)-[1,2,4]triazolo[4,3-b]pyridazin-6-yl)pyrimidine-2,4(1H,3H)-dione]",EC50,CD73 [1],13.5 nM
same,IC50,CD73 [2],1.93 nM
"O=C(c1ccc(C2CN(c3cc(-c4c[nH]c(=O)[nH]c4=O)nn4ccnc34)C2)cc1)N1CC(F)(F)C1 [Example 267, 5-(8-(3-(4-(3,3-difluoroazetidine-1-carbonyl)phenyl)azetidin-1-yl)imidazo[1,2-b]pyridazin-6-yl)pyrimidine-2,4(1H,3H)-dione]",EC50,CD73 [1],66.6 nM
same,IC50,CD73 [2],34.7 nM
"O=C(c1cccc(C2CN(c3cc(-c4c[nH]c(=O)[nH]c4=O)nn4ccnc34)C2)c1)N1CC(F)(F)C1 [Example 268, 5-(8-(3-(3-(3,3-difluoroazetidine-1-carbonyl)phenyl)azetidin-1-yl)imidazo[1,2-b]pyridazin-6-yl)pyrimidine-2,4(1H,3H)-dione]",EC50,CD73 [1],135 nM
same,IC50,CD73 [2],97 nM
"CNC(=O)c1cccc(C2CCN(c3cc(-c4c[nH]c(=O)[nH]c4=O)nn4ccnc34)C2)c1 (centres unmarked) [Example 269, 3-(1-(6-(2,4-dioxo-1,2,3,4-tetrahydropyrimidin-5-yl)imidazo[1,2-b]pyridazin-8-yl)pyrrolidin-3-yl)-N-methylbenzamide]",EC50,CD73 [1],27 nM
same,IC50,CD73 [2],3.62 nM
"CNC(=O)c1ccc(C2CCN(c3cc(-c4c[nH]c(=O)[nH]c4=O)nn4ccnc34)C2)cc1 (centres unmarked) [Example 270, 4-(1-(6-(2,4-dioxo-1,2,3,4-tetrahydropyrimidin-5-yl)imidazo[1,2-b]pyridazin-8-yl)pyrrolidin-3-yl)-N-methylbenzamide]",EC50,CD73 [1],13.7 nM
same,IC50,CD73 [2],1.13 nM
"O=c1[nH]cc(-c2cc([C@H]3C[C@@H]3c3cnc(C(F)(F)F)nc3)c3nccn3n2)c(=O)[nH]1 [Example 272, 5-(8-((1S,2S)-2-(2-(trifluoromethyl)pyrimidin-5-yl)cyclopropyl)imidazo[1,2-b]pyridazin-6-yl)pyrimidine-2,4(1H,3H)-dione]",EC50,CD73 [1],72.6 nM
same,IC50,CD73 [2],9.9 nM
"O=c1[nH]cc(-c2cc([C@@H]3C[C@H]3c3cnc(C(F)(F)F)nc3)c3ncc(F)n3n2)c(=O)[nH]1 [Example 273, 5-(3-fluoro-8-((1R,2R)-2-(2-(trifluoromethyl)pyrimidin-5-yl)cyclopropyl)imidazo[1,2-b]pyridazin-6-yl)pyrimidine-2,4(1H,3H)-dione]",EC50,CD73 [1],58.1 nM
same,IC50,CD73 [2],9.39 nM
"O=c1[nH]cc(-c2cc(N3CCC4(CCOC4)C3)c3nccn3n2)c(=O)[nH]1 (centres unmarked) [Example 274, 5-(8-(2-oxa-7-azaspiro[4.4]nonan-7-yl)imidazo[1,2-b]pyridazin-6-yl)pyrimidine-2,4(1H,3H)-dione]",EC50,CD73 [1],39.4 nM
same,IC50,CD73 [2],16.5 nM
"O=c1[nH]cc(-c2cc(N3CCC4(CCOCC4)C3)c3nccn3n2)c(=O)[nH]1 [Example 275, 5-(8-(8-oxa-2-azaspiro[4.5]decan-2-yl)imidazo[1,2-b]pyridazin-6-yl)pyrimidine-2,4(1H,3H)-dione]",EC50,CD73 [1],36.2 nM
same,IC50,CD73 [2],8.64 nM
"N#Cc1ccc([C@H]2C[C@@H]2c2cc(-c3c[nH]c(=O)[nH]c3=O)nn3ccnc23)c(F)c1 [Example 279, 4-((1S,2S)-2-(6-(2,4-dioxo-1,2,3,4-tetrahydropyrimidin-5-yl)imidazo[1,2-b]pyridazin-8-yl)cyclopropyl)-3-fluorobenzonitrile]",EC50,CD73 [1],6.64 nM
same,IC50,CD73 [2],1.07 nM
"N#Cc1ccc([C@H]2C[C@@H]2c2cc(-c3c[nH]c(=O)[nH]c3=O)nn3c(F)cnc23)c(F)c1 [Example 310, 4-((1S,2S)-2-(6-(2,4-dioxo-1,2,3,4-tetrahydropyrimidin-5-yl)-3-fluoroimidazo[1,2-b]pyridazin-8-yl)cyclopropyl)-3-fluorobenzonitrile]",EC50,CD73 [1],3.4 nM
same,IC50,CD73 [2],0.63 nM
"O=c1[nH]cc(-c2cc(N3CCC4(CCCC4)C3)c3nccn3n2)c(=O)[nH]1 [Example 315, 5-(8-(2-azaspiro[4.4]nonan-2-yl)imidazo[1,2-b]pyridazin-6-yl)pyrimidine-2,4(1H,3H)-dione]",EC50,CD73 [1],27.6 nM
same,IC50,CD73 [2],6.64 nM
"O=c1[nH]cc(-c2cc([C@H]3C[C@@H]3c3ccc4c(cnn4CC(F)(F)F)c3)c3nccn3n2)c(=O)[nH]1 [Example 316, 5-(8-((1S,2S)-2-(1-(2,2,2-trifluoroethyl)-1H-indazol-5-yl)cyclopropyl)imidazo[1,2-b]pyridazin-6-yl)pyrimidine-2,4(1H,3H)-dione]",EC50,CD73 [1],1.21 nM
same,IC50,CD73 [2],0.65 nM
"O=c1[nH]cc(-c2cc([C@H]3C[C@@H]3c3ccc4c(cnn4CC(F)(F)F)c3)c3ncc(F)n3n2)c(=O)[nH]1 [Example 317, 5-(3-fluoro-8-((1S,2S)-2-(1-(2,2,2-trifluoroethyl)-1H-indazol-5-yl)cyclopropyl)imidazo[1,2-b]pyridazin-6-yl)pyrimidine-2,4(1H,3H)-dione]",EC50,CD73 [1],2 nM
same,IC50,CD73 [2],1.01 nM
"O=c1[nH]cc(-c2cc([C@H]3C[C@@H]3c3ccc4cnn(CC(F)(F)F)c4c3)c3nccn3n2)c(=O)[nH]1 [Example 318, 5-(8-((1S,2S)-2-(1-(2,2,2-trifluoroethyl)-1H-indazol-6-yl)cyclopropyl)imidazo[1,2-b]pyridazin-6-yl)pyrimidine-2,4(1H,3H)-dione]",EC50,CD73 [1],0.06 nM
same,IC50,CD73 [2],0.43 nM
"O=c1[nH]cc(-c2cc([C@H]3C[C@@H]3c3ccc4cnn(CC(F)(F)F)c4c3)c3ncc(F)n3n2)c(=O)[nH]1 [Example 319, 5-(3-fluoro-8-((1S,2S)-2-(1-(2,2,2-trifluoroethyl)-1H-indazol-6-yl)cyclopropyl)imidazo[1,2-b]pyridazin-6-yl)pyrimidine-2,4(1H,3H)-dione]",EC50,CD73 [1],0.07 nM
same,IC50,CD73 [2],0.34 nM
"CC1(C)CN(c2cc(-c3c[nH]c(=O)[nH]c3=O)nn3ccnc23)CC(F)(F)C1 [Example 320, 5-(8-(3,3-difluoro-5,5-dimethylpiperidin-1-yl)imidazo[1,2-b]pyridazin-6-yl)pyrimidine-2,4(1H,3H)-dione]",EC50,CD73 [1],1150 nM
same,IC50,CD73 [2],> 250 nM
"O=c1[nH]cc(-c2cc([C@H]3C[C@@H]3c3ccc4ncn(CC(F)(F)F)c4c3)c3nccn3n2)c(=O)[nH]1 [Example 322, 5-(8-((1S,2S)-2-(1-(2,2,2-trifluoroethyl)-1H-benzo[d]imidazol-6-yl)cyclopropyl)imidazo[1,2-b]pyridazin-6-yl)pyrimidine-2,4(1H,3H)-dione]",EC50,CD73 [1],0.07 nM
same,IC50,CD73 [2],0.8 nM
"O=c1[nH]cc(-c2cc([C@H]3C[C@@H]3c3ccc4ncn(CC(F)(F)F)c4c3)c3ncc(F)n3n2)c(=O)[nH]1 [Example 323, 5-(3-fluoro-8-((1S,2S)-2-(1-(2,2,2-trifluoroethyl)-1H-benzo[d]imidazol-6-yl)cyclopropyl)imidazo[1,2-b]pyridazin-6-yl)pyrimidine-2,4(1H,3H)-dione]",EC50,CD73 [1],0.06 nM
same,IC50,CD73 [2],0.51 nM
"O=c1[nH]cc(-c2cc(N3CC(F)(F)C4(CCC4)C3)c3nccn3n2)c(=O)[nH]1 [Example 325, 5-(8-(8,8-difluoro-6-azaspiro[3.4]octan-6-yl)imidazo[1,2-b]pyridazin-6-yl)pyrimidine-2,4(1H,3H)-dione]",EC50,CD73 [1],11.2 nM
same,IC50,CD73 [2],1.7 nM
"CC1(C)CN(c2cc(-c3c[nH]c(=O)[nH]c3=O)nn3cc(Cl)nc23)CC1(F)F [Example 328, 5-(2-chloro-8-(3,3-difluoro-4,4-dimethylpyrrolidin-1-yl)imidazo[1,2-b]pyridazin-6-yl)pyrimidine-2,4(1H,3H)-dione]",EC50,CD73 [1],40.5 nM
same,IC50,CD73 [2],3.68 nM
"O=c1[nH]cc(-c2cc([C@H]3C[C@@H]3c3ccc4c(C(F)(F)F)nn(CC(F)(F)F)c4c3)c3ncc(F)n3n2)c(=O)[nH]1 [Example 329, 5-(3-fluoro-8-((1S,2S)-2-(1-(2,2,2-trifluoroethyl)-3-(trifluoromethyl)-1H-indazol-6-yl)cyclopropyl)imidazo[1,2-b]pyridazin-6-yl)pyrimidine-2,4(1H,3H)-dione]",EC50,CD73 [1],0.71 nM
same,IC50,CD73 [2],0.64 nM
"O=c1[nH]cc(-c2cc(N3C[C@H](Oc4cc(C(F)(F)F)ccn4)C(F)(F)C3)c3nccn3n2)c(=O)[nH]1 [Example 330, (S)-5-(8-(3,3-difluoro-4-((4-(trifluoromethyl)pyridin-2-yl)oxy)pyrrolidin-1-yl)imidazo[1,2-b]pyridazin-6-yl)pyrimidine-2,4(1H,3H)-dione]",EC50,CD73 [1],0.51 nM
same,IC50,CD73 [2],1.07 nM
"O=c1[nH]cc(-c2cc(N3C[C@@H](Oc4cc(C(F)(F)F)ccn4)C(F)(F)C3)c3nccn3n2)c(=O)[nH]1 [Example 331, (R)-5-(8-(3,3-difluoro-4-((4-(trifluoromethyl)pyridin-2-yl)oxy)pyrrolidin-1-yl)imidazo[1,2-b]pyridazin-6-yl)pyrimidine-2,4(1H,3H)-dione]",EC50,CD73 [1],11.1 nM
same,IC50,CD73 [2],16.2 nM
